Values joined by “and” are separate entries in the source; they are usually repeats but may differ in a detail not shown here. Identical values can stand only once. Inconclusive results and toxic doses are left out. No stated cut-off is given here; in the data, active means T/C of 150% or more; inactive means T/C below 125%.
Test system: L1210 leukemia ip in BDF1 mice, survival T/C
Test: NCI In Vivo Anticancer Drug Screen. Data for tumor model L1210 Leukemia (intraperitoneal) in B6D2F1 (BDF1) mice
Conditions: endpoint: mean survival time, higher = longer survival
How it was run: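 Each compound was tested against a transplantable tumor grown in mice. The endpoint was survival, with treated animals benchmarked against vehicle controls as a simple ratio.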

[1] = dose: 100.0 mg/kg/injection, schedule: Q01DX009 (ip), vehicle: Klucel (hydroxypropylcellulose) (HPC)
[2] = dose: 100.0 mg/kg/injection, schedule: Q04DX003 (ip), vehicle: saline
[3] = dose: 200.0 mg/kg/injection, schedule: Q01DX009 (ip), vehicle: Klucel (hydroxypropylcellulose) (HPC)
[4] = dose: 200.0 mg/kg/injection, schedule: Q04DX003 (ip), vehicle: saline
[5] = dose: 400.0 mg/kg/injection, schedule: Q01DX009 (ip), vehicle: Klucel (hydroxypropylcellulose) (HPC)
[6] = dose: 400.0 mg/kg/injection, schedule: Q04DX003 (ip), vehicle: saline
[7] = dose: 100.0 mg/kg/injection, schedule: Q01DX009 (ip), vehicle: saline with Tween-80
[8] = dose: 100.0 mg/kg/injection, schedule: Q04DX003 (ip), vehicle: saline with Tween-80
[9] = dose: 200.0 mg/kg/injection, schedule: Q01DX009 (ip), vehicle: saline with Tween-80
[10] = dose: 200.0 mg/kg/injection, schedule: Q04DX003 (ip), vehicle: saline with Tween-80
[11] = dose: 400.0 mg/kg/injection, schedule: Q01DX009 (ip), vehicle: saline with Tween-80
[12] = dose: 400.0 mg/kg/injection, schedule: Q04DX003 (ip), vehicle: saline with Tween-80
[13] = dose: 100.0 mg/kg/injection, schedule: Q01DX001 (ip), vehicle: saline
[14] = dose: 100.0 mg/kg/injection, schedule: Q01DX001 (ip), vehicle: Klucel (hydroxypropylcellulose) (HPC)
[15] = dose: 200.0 mg/kg/injection, schedule: Q01DX001 (ip), vehicle: Klucel (hydroxypropylcellulose) (HPC)

Measured: T/C

c1ccc(N=Nc2ccc(C3=NCCO3)cc2)cc1
inactive: [1] 91 % of control | [2] 95 % of control | [3] 88 % of control | [4] 101 % of control | [5] 87 % of control | [6] 94 % of control

CC(=O)[O][Hg][c]1sc2ccccc2c1C
inactive: dose: 0.5 mg/kg/injection, schedule: Q01DX015 (ip), vehicle: other 106 % of control | dose: 1.0 mg/kg/injection, schedule: Q01DX015 (ip), vehicle: other 98 % of control | dose: 1.5 mg/kg/injection, schedule: Q04DX003 (ip), vehicle: saline 103 % of control | dose: 2.0 mg/kg/injection, schedule: Q01DX015 (ip), vehicle: other 98 % of control | dose: 2.12 mg/kg/injection, schedule: Q01DX009 (ip), vehicle: saline with Tween-80 98 % of control | dose: 3.0 mg/kg/injection, schedule: Q01DX001 (ip), vehicle: acetone 101 % of control | dose: 3.0 mg/kg/injection, schedule: Q04DX003 (ip), vehicle: saline 95 % of control | dose: 4.0 mg/kg/injection, schedule: Q01DX015 (ip), vehicle: other 96 % of control | dose: 4.25 mg/kg/injection, schedule: Q01DX009 (ip), vehicle: saline with Tween-80 95 % of control | dose: 6.0 mg/kg/injection, schedule: Q01DX001 (ip), vehicle: acetone 95 % of control | dose: 6.0 mg/kg/injection, schedule: Q04DX003 (ip), vehicle: saline 98 % of control | dose: 8.5 mg/kg/injection, schedule: Q01DX009 (ip), vehicle: saline with Tween-80 98 % of control | dose: 8.5 mg/kg/injection, schedule: Q04DX003 (ip), vehicle: acetone 98 % of control | dose: 12.0 mg/kg/injection, schedule: Q01DX001 (ip), vehicle: acetone 86 % of control | dose: 12.0 mg/kg/injection, schedule: Q01DX009 (ip), vehicle: saline with Tween-80 95 % of control and 88 % of control | dose: 19.0 mg/kg/injection, schedule: Q01DX009 (ip), vehicle: saline with Tween-80 92 % of control | dose: 28.0 mg/kg/injection, schedule: Q01DX009 (ip), vehicle: saline with Tween-80 106 % of control

CC1C=CC2CC(O)C12 (stereo unspecified)
inactive: [7] 111 % of control | [8] 102 % of control | [9] 93 % of control | [10] 98 % of control | [11] 99 % of control | [12] 98 % of control

O=c1[nH]cnc2ccccc12
inactive: [1] 107 % of control | [3] 93 % of control | [5] 103 % of control

CC(=O)c1cccc(NC(=O)N(C)Cc2ccccc2)c1
inactive: [1] 109 % of control | [3] 100 % of control | [5] 112 % of control

O=C1C2CCCC3CCCC(C(=O)N1NC1CCCCC1)C32 (stereo unspecified)
inactive: dose: 100.0 mg/kg/injection, schedule: Q04DX002 (ip), vehicle: saline with Tween-80 93 % of control | dose: 200.0 mg/kg/injection, schedule: Q04DX002 (ip), vehicle: saline with Tween-80 86 % of control

COc1ccc(CNCCC(=O)O)cc1OC
inactive: dose: 50.0 mg/kg/injection, schedule: Q01DX001 (ip), vehicle: carboxymethylcellulose (CMC) 107 % of control | dose: 100.0 mg/kg/injection, schedule: Q01DX001 (ip), vehicle: carboxymethylcellulose (CMC) 100 % of control | dose: 200.0 mg/kg/injection, schedule: Q01DX001 (ip), vehicle: carboxymethylcellulose (CMC) 105 % of control | dose: 400.0 mg/kg/injection, schedule: Q01DX001 (ip), vehicle: carboxymethylcellulose (CMC) 105 % of control

Cc1cc(C)nc(NN=C2CC(C)(C)N(O)C(C)(C)C2)n1
inactive: dose: 25.0 mg/kg/injection, schedule: Q04DX003 (ip), vehicle: saline 96 % of control | dose: 50.0 mg/kg/injection, schedule: Q04DX003 (ip), vehicle: saline 98 % of control | [2] 102 % of control

ClC(C[n+]1ccccc1)c1ccccc1 (stereo unspecified)
inactive: [13] 100 % of control

COc1cccc(NC(=O)Nc2cccc(C(F)(F)F)c2)c1
inactive: [1] 96 % of control | [3] 101 % of control | [5] 101 % of control

O=C(O)CNC(=O)c1ccc(C(=O)NCC(=O)O)cc1
inactive: [2] 106 % of control | [4] 105 % of control | [6] 97 % of control

CS(=O)(=O)NC[C@H](Cl)[C@@H](Cl)CNS(C)(=O)=O
inactive: [13] 100 % of control | dose: 200.0 mg/kg/injection, schedule: Q01DX001 (ip), vehicle: saline 102 % of control | dose: 400.0 mg/kg/injection, schedule: Q01DX001 (ip), vehicle: saline 91 % of control

O=C(CNC(=O)c1ccccc1)N/N=C/c1ccc(Cl)cc1Cl
inactive: [7] 94 % of control | [9] 89 % of control | [11] 98 % of control

CCOC(=O)c1nc(N2CCOCC2)c2ccccc2n1
inactive: dose: 100.0 mg/kg/injection, schedule: Q04DX002 (ip), vehicle: Klucel (hydroxypropylcellulose) (HPC) 104 % of control | dose: 200.0 mg/kg/injection, schedule: Q04DX002 (ip), vehicle: Klucel (hydroxypropylcellulose) (HPC) 101 % of control | dose: 400.0 mg/kg/injection, schedule: Q04DX002 (ip), vehicle: Klucel (hydroxypropylcellulose) (HPC) 95 % of control

C=C(C=O)C1CCC2=C(CCC3(C)C(C(C)CCCC(C)C)CCC23C)C1(C)CCC#N (stereo unspecified)
inactive: [8] 93 % of control | [10] 96 % of control | [12] 93 % of control

CCC(C)NC(=O)Oc1cccc(NC(=O)N(C)C)c1 (stereo unspecified)
inactive: [8] 92 % of control | [10] 89 % of control | [12] 90 % of control

COC12C3C=CC4C(C=C3)C4C1C2(Br)Br (stereo unspecified)
inactive: dose: 50.0 mg/kg/injection, schedule: Q01DX001 (ip), vehicle: Klucel (hydroxypropylcellulose) (HPC) 105 % of control | [14] 96 % of control | [15] 105 % of control

COc1cc(OC)c(/C=C/c2ccc3ccccc3[n+]2[O-])c(OC)c1
inactive: dose: 100.0 mg/kg/injection, schedule: Q04DX002 (ip), vehicle: gum acacia 95 % of control | dose: 200.0 mg/kg/injection, schedule: Q04DX002 (ip), vehicle: gum acacia 95 % of control | dose: 400.0 mg/kg/injection, schedule: Q04DX002 (ip), vehicle: gum acacia 100 % of control

O=C1N(CCCl)CCN1c1ccccc1
inactive: [14] 93 % of control | [1] 104 % of control | [15] 96 % of control | [3] 106 % of control | dose: 400.0 mg/kg/injection, schedule: Q01DX001 (ip), vehicle: Klucel (hydroxypropylcellulose) (HPC) 95 % of control | [5] 106 % of control

Cc1ccc(C(=O)CCC(=O)O)cc1
inactive: [8] 102 % of control | [10] 98 % of control | [12] 94 % of control
